From patent US11311522B1 (Cavion, Inc., priority 2018, dated 2022)

Assay: PN002/Part II: safety and tolerability
Assay type: in vivo
Text: Clinical safety was monitored throughout the study by adverse events, clinical laboratory tests, vital signs, ECGs, and ECG telemetry.
The subject was not on telemetry at the time.

In the case of `CC(C)c1ccc(CC(=O)N[C@H](C)c2ccc(OCC(F)(F)F)cn2)cc1` [CX-8998], the Abnormal physical sensation (2 mg/d) is reported as 0 n %, the “Abnormal sensation of limbs” value (2 mg/d) is reported as 0 n % and the Anger (2 mg/d) is reported as 0 n %. For the same compound, the Application site erythema (2 mg/d) was 0 n %, the Application site pruritus (2 mg/d) was 0 n % and the “At least 1 adverse event” value (2 mg/d) was 4 (66.7) n %. The Backache (2 mg/d) was 0 n %, the Clamminess (2 mg/d) was 0 n % and the Daydreaming (2 mg/d) was 0 n %. The Disorientation (2 mg/d) was 1 (16.7) n %, the Dizziness (2 mg/d) was 0 n % and the Drowsiness (2 mg/d) was 0 n %. For the same compound, the Dyspepsia (2 mg/d) was 0 n %, the Euphoric mood (2 mg/d) was 0 n % and the “Eye Disorders” value (2 mg/d) was 0 n %. For the same compound, the Feeling drunk (2 mg/d) was 0 n %, the Feeling of relaxation (2 mg/d) was 0 n % and the Floating feeling (2 mg/d) was 0 n %. The Fuzzy head (2 mg/d) was 0 n %, the “Gastrointestinal Disorders” value (2 mg/d) was 2 (33.3) n % and the Hallucination (2 mg/d) was 0 n %. For the same compound, the Headache (2 mg/d) was 1 (16.7) n %, the Heaviness of head (2 mg/d) was 0 n % and the Hyperactivity (2 mg/d) was 0 n %. The Hypoaesthesia mouth (2 mg/d) was 0 n %, the “Increased state of alertness” value (2 mg/d) was 0 n % and the Intermittent headache (2 mg/d) was 0 n %. It also gave a Lethargy (2 mg/d) of 0 n %, a Lightheadedness (2 mg/d) of 0 n % and a Mood altered (2 mg/d) of 0 n %. For the same compound, the Mood change (2 mg/d) was 0 n %, the “Musculoskeletal and Connective Tissue Disorders” value (2 mg/d) was 2 (33.3) n % and the Nausea (2 mg/d) was 2 (33.3) n %. The “Nervous System Disorders” value (2 mg/d) was 1 (16.7) n %, the Paraesthesia generalized (2 mg/d) was 0 n % and the Paranoia (2 mg/d) was 0 n %. The “Psychiatric Disorders” value (2 mg/d) was 1 (16.7) n %, the “Respiratory, Thoracic and Mediastinal Disorders” value (2 mg/d) was 1 (16.7) n % and the Sedation (2 mg/d) was 0 n %. The Sensation of heaviness (2 mg/d) was 0 n %, the Sensation of pressure (2 mg/d) was 0 n % and the “Skin and Subcutaneous Tissue Disorders” value (2 mg/d) was 0 n %. It also gave a Sleep difficult (2 mg/d) of 0 n %, a Sleep disturbance (2 mg/d) of 0 n % and a Somnolence (2 mg/d) of 0 n %. The Sore throat (2 mg/d) was 1 (16.7) n %, the Spaced out (2 mg/d) was 0 n % and the Syncope (2 mg/d) was 1 (16.7) n %. The Taste change (2 mg/d) was 0 n %, the Temporal disorientation (2 mg/d) was 0 n % and the Tingling (2 mg/d) was 1 (16.7) n %. For the same compound, the Tiredness (2 mg/d) was 1 (16.7) n %, the Visual disturbance (2 mg/d) was 0 n % and the Vivid dreams (2 mg/d) was 0 n %. For the same compound, the Vomiting (2 mg/d) was 1 (16.7) n %, the Abnormal physical sensation (4 mg/d) was 0 n % and the “Abnormal sensation of limbs” value (4 mg/d) was 0 n %. The Anger (4 mg/d) was 0 n %, the Application site erythema (4 mg/d) was 0 n % and the Application site pruritus (4 mg/d) was 0 n %. The “At least 1 adverse event” value (4 mg/d) was 5 (83.3) n %, the Backache (4 mg/d) was 0 n % and the Clamminess (4 mg/d) was 0 n %. It also gave a Daydreaming (4 mg/d) of 0 n %, a Disorientation (4 mg/d) of 0 n % and a Dizziness (4 mg/d) of 0 n %. For the same compound, the Drowsiness (4 mg/d) was 2 (33.3) n %, the Dyspepsia (4 mg/d) was 0 n % and the Euphoric mood (4 mg/d) was 1 (16.7) n %. For the same compound, the “Eye Disorders” value (4 mg/d) was 1 (16.7) n %, the Feeling drunk (4 mg/d) was 0 n % and the Feeling of relaxation (4 mg/d) was 4 (66.7) n %. The Floating feeling (4 mg/d) was 1 (16.7) n %, the Fuzzy head (4 mg/d) was 1 (16.7) n % and the “Gastrointestinal Disorders” value (4 mg/d) was 1 (16.7) n %. The Hallucination (4 mg/d) was 0 n %, the Headache (4 mg/d) was 3 (50.0) n % and the Heaviness of head (4 mg/d) was 0 n %. For the same compound, the Hyperactivity (4 mg/d) was 0 n %, the Hypoaesthesia mouth (4 mg/d) was 0 n % and the “Increased state of alertness” value (4 mg/d) was 1 (16.7) n %. For the same compound, the Intermittent headache (4 mg/d) was 1 (16.7) n %, the Lethargy (4 mg/d) was 1 (16.7) n % and the Lightheadedness (4 mg/d) was 4 (66.7) n %. The Mood altered (4 mg/d) was 0 n %, the Mood change (4 mg/d) was 0 n % and the “Musculoskeletal and Connective Tissue Disorders” value (4 mg/d) was 0 n %. The Nausea (4 mg/d) was 0 n %, the “Nervous System Disorders” value (4 mg/d) was 5 (83.3) n % and the Paraesthesia generalized (4 mg/d) was 0 n %. For the same compound, the Paranoia (4 mg/d) was 0 n %, the “Psychiatric Disorders” value (4 mg/d) was 3 (50.0) n % and the “Respiratory, Thoracic and Mediastinal Disorders” value (4 mg/d) was 0 n %. It also gave a Sedation (4 mg/d) of 0 n %, a Sensation of heaviness (4 mg/d) of 0 n % and a Sensation of pressure (4 mg/d) of 0 n %. For the same compound, the “Skin and Subcutaneous Tissue Disorders” value (4 mg/d) was 1 (16.7) n %, the Sleep difficult (4 mg/d) was 0 n % and the Sleep disturbance (4 mg/d) was 1 (16.7) n %. The Somnolence (4 mg/d) was 1 (16.7) n %, the Sore throat (4 mg/d) was 0 n % and the Spaced out (4 mg/d) was 0 n %. The Syncope (4 mg/d) was 0 n %, the Taste change (4 mg/d) was 0 n % and the Temporal disorientation (4 mg/d) was 0 n %. For the same compound, the Tingling (4 mg/d) was 0 n %, the Tiredness (4 mg/d) was 2 (33.3) n % and the Visual disturbance (4 mg/d) was 1 (16.7) n %. The Vivid dreams (4 mg/d) was 2 (33.3) n %, the Vomiting (4 mg/d) was 0 n % and the Abnormal physical sensation (8 mg/d) was 0 n %. For the same compound, the “Abnormal sensation of limbs” value (8 mg/d) was 0 n %, the Anger (8 mg/d) was 0 n % and the Application site erythema (8 mg/d) was 3 (50.0) n %. The Application site pruritus (8 mg/d) was 1 (16.7) n %, the “At least 1 adverse event” value (8 mg/d) was 6 (100) n % and the Backache (8 mg/d) was 0 n %. The Clamminess (8 mg/d) was 1 (16.7) n %, the Daydreaming (8 mg/d) was 1 (16.7) n % and the Disorientation (8 mg/d) was 0 n %. The Dizziness (8 mg/d) was 0 n %, the Drowsiness (8 mg/d) was 1 (16.7) n % and the Dyspepsia (8 mg/d) was 2 (33.3) n %. For the same compound, the Euphoric mood (8 mg/d) was 2 (33.3) n %, the “Eye Disorders” value (8 mg/d) was 2 (33.3) n % and the Feeling drunk (8 mg/d) was 0 n %. The Feeling of relaxation (8 mg/d) was 1 (16.7) n %, the Floating feeling (8 mg/d) was 2 (33.3) n % and the Fuzzy head (8 mg/d) was 1 (16.7) n %. For the same compound, the “Gastrointestinal Disorders” value (8 mg/d) was 3 (50.0) n %, the Hallucination (8 mg/d) was 0 n % and the Headache (8 mg/d) was 5 (83.3) n %. For the same compound, the Heaviness of head (8 mg/d) was 0 n %, the Hyperactivity (8 mg/d) was 2 (33.3) n % and the Hypoaesthesia mouth (8 mg/d) was 0 n %. For the same compound, the “Increased state of alertness” value (8 mg/d) was 1 (16.7) n %, the Intermittent headache (8 mg/d) was 1 (16.7) n % and the Lethargy (8 mg/d) was 1 (16.7) n %. For the same compound, the Lightheadedness (8 mg/d) was 4 (66.7) n %, the Mood altered (8 mg/d) was 1 (16.7) n % and the Mood change (8 mg/d) was 2 (33.3) n %. For the same compound, the “Musculoskeletal and Connective Tissue Disorders” value (8 mg/d) was 1 (16.7) n %, the Nausea (8 mg/d) was 1 (16.7) n % and the “Nervous System Disorders” value (8 mg/d) was 6 (100) n %. The Paraesthesia generalized (8 mg/d) was 1 (16.7) n %, the Paranoia (8 mg/d) was 0 n % and the “Psychiatric Disorders” value (8 mg/d) was 3 (50.0) n %. For the same compound, the “Respiratory, Thoracic and Mediastinal Disorders” value (8 mg/d) was 3 (50.0) n %, the Sedation (8 mg/d) was 2 (33.3) n % and the Sensation of heaviness (8 mg/d) was 1 (16.7) n %. For the same compound, the Sensation of pressure (8 mg/d) was 2 (33.3) n %, the “Skin and Subcutaneous Tissue Disorders” value (8 mg/d) was 1 (16.7) n % and the Sleep difficult (8 mg/d) was 0 n %. For the same compound, the Sleep disturbance (8 mg/d) was 0 n %, the Somnolence (8 mg/d) was 2 (33.3) n % and the Sore throat (8 mg/d) was 1 (16.7) n %. For the same compound, the Spaced out (8 mg/d) was 1 (16.7) n %, the Syncope (8 mg/d) was 0 n % and the Taste change (8 mg/d) was 1 (16.7) n %. For the same compound, the Temporal disorientation (8 mg/d) was 2 (33.3) n %, the Tingling (8 mg/d) was 1 (16.7) n % and the Tiredness (8 mg/d) was 3 (50.0) n %. For the same compound, the Visual disturbance (8 mg/d) was 1 (16.7) n %, the Vivid dreams (8 mg/d) was 2 (33.3) n % and the Vomiting (8 mg/d) was 1 (16.7) n %. The Abnormal physical sensation (12 mg/d) was 0 n %.
